Where a SMILES comes first, the peptide text is derived from it. [ ]: non-standard residue; d: D form. pS = N[C@@H](COP(=O)(O)O)C(=O)O
Assays:
[1] = target: T1, 14‐3‐3η (Homo sapiens, UniProt Q04917); assay: Fluorescence anisotropy direct titration, 14‐3‐3η; type: binding
T1 construct: full‐length proteins were concentrated by centrifugation, rebuffered in HEPES buffer; made in house; host or cells: E. coli BL21(DE3)
T1 sequence (Q04917 1-246): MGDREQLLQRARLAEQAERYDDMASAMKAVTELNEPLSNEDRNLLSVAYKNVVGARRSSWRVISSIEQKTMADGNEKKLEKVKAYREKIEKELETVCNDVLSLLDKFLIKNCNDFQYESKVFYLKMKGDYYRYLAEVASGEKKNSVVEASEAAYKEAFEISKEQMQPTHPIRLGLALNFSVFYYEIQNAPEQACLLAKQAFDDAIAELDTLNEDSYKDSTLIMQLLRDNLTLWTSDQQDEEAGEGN
Protocol: All assays were performed in 384 well plates (each experiment was run in triplicates) and data were collected by Perkin Elmer EnVision 2013 plate reader with excitation at 480 nm (30 nm bandwidth), polarised dichroic mirror at 505 nm and emission at 535 nm (40 nm bandwidth, S and P polarised). Experiments were carried out in HBS buffer (10 mM HEPES, 150 mM NaCl, pH 7.4) + 0.1% Tween 20 + 0.1% BSA). A ½ fold dilution series was performed in the titration, with plates read after 30 min, 4 h and 20–24 h. […] Collected data were processed in Microsoft Excel using the equations below. Total intensity I and anisotropy r were calculated using Equations 1 and 2 for each well. Average anisotropy was plotted against protein concentration using OriginPro and a logistic curve was fitted to give r min and r max. Using Equation 3 anisotropy was converted into fraction bound and multiplied by peptide concentration to be fitted in Origin using Equation 5 to obtain K d values.

[2] = target: T1, 14‐3‐3η; assay: Surface plasmon resonance on immobilized 14‐3‐3η; type: binding; details: multicycle kinetic format, Langmuir model, 25 °C
Protocol: (§1) […]
Experiments were performed at 25 °C using a Biacore T200 instrument (GE Healthcare, Buckinghamshire, UK). For immobilization, the running buffer was HBS buffer (HEPES, NaCl, Tween‐20, pH 7.4). 14‐3‐3η was immobilized on an NTA sensor chip (Series S Sensor Chip GE Healthcare) using NTA reagent and Biacore Amine Coupling Kit. Briefly, 14‐3‐3η was diluted to 0.2 mg·mL^−1 and 200 µL was injected over a chip surface that had been activated with an injection of Ni^2+, followed by 140 µL of 1 : 1 NHS/EDC. A 30 µL of 0.5 M ethanolamine was then injected to cap the excess free amine groups. […] Then, 20 µL of these solutions were injected over a 14‐3‐3η immobilized surface for 1 min at the […] flow rate, followed by a 4 min regeneration period with HBS buffer. Kinetics and the binding affinity were calculated using the BIACORE evaluation software (Buckinghamshire, UK). Standard dose–response curves were fitted by plotting RUs against the peptide concentration.

[3] = target: T1, 14‐3‐3η; assay: Isothermal titration calorimetry, peptide into 14‐3‐3η; type: binding; details: 25 °C, HEPES pH 7.5
Protocol: as §1
Moreover, such experiments provide thermodynamic data and as a label‐free method require no immobilization/functionalization of any of the binding partners. Here data were obtained by titration of the peptide into 14‐3‐3η protein (Fig. 2D,E and Fig. S7).
Isothermal titration calorimetry experiments were carried out on a MicroCal iTC200 in HBS buffer at 25°C (25 mM HEPES pH 7.5, 100 mM NaCl, 10 mM MgCl2, 0.5 mM TCEP). Peptides ([…]) in the syringe were titrated into a cell containing 14‐3‐3η ([…]). Data were fitted using MICROCAL software (Northampton, MA, USA) to give binding constant (K d), enthalpy (ΔH), entropy (ΔS) and binding stoichiometry (n).

[4] = target: T1, 14‐3‐3η; assay: Analytical ultracentrifugation (sedimentation velocity) of 14‐3‐3η with peptide; details: AUC‐SV; 14 μM 14‐3‐3η, protein : peptide 1 : 1 and 1 : 0.5; 10 mM HEPES, 150 mM NaCl, pH 7.4; 25 °C
Text: The 1 : 1 stoichiometry between the doubly phosphorylated peptides and 14‐3‐3 contrasts with previously reported work, although it may be that the length and/or accessible conformation of the hDMX and hDM2 peptides are incompatible with the simultaneous engagement of both 14‐3‐3 protomers in the dimeric structure. To further explore this behaviour and understand the basis of cooperativity and affinity enhancement we performed additional experiments. To exclude the possible formation of higher‐order oligomers (e.g. 14‐3‐3 tetramers held together by two peptides bridging two dimers), an analytical ultracentrifugation experiment was performed. The 14‐3‐3η (at the concentration of 14 μM, approximately corresponding to the second binding events observed in FA, Fig. 2C) and hDMX335‐373 ^pSer342/pSer367 peptide in two different concentration ratios (1 : 1 and 1 : 0.5, protein vs. peptide) were analysed. […] The second binding event observed only in fluorescence anisotropy experiments, may represent a further non‐specific binding event or an interaction linked to 14‐3‐3 dimerization and will be investigated in future work.
AUC‐SV experiments were performed using a Beckman Coulter Optima XL‐I ultracentrifuge. […] The diffusion‐deconvoluted sedimentation coefficient distributions c(s) were calculated using the SEDFIT program (Bethesda, MD, USA). […]

[5] = tested on: all isoforms of 14‐3‐3; assay: Fluorescence anisotropy assays with all isoforms of 14‐3‐3 (result in words); type: binding, human; details: FAM tracer peptide 50 nM, 0.1 nM - 300 µM protein, 10 mM HEPES, 150 mM NaCl, 0.1% Tween 20, 0.1% BSA pH 7.4; n = 3
Text: 14‐3‐3 proteins were titrated against a constant concentration of the tracer resulting in an increase of anisotropy upon engaging 14‐3‐3 proteins (Fig. 2A–C for 14‐3‐3 binding hDMX sequences and Figs S4–S6, for 14‐3‐3 binding hDM2 sequences, non‐binding sequence, and unphosphorylated controls). A noteworthy feature of the data is that different maximum anisotropy levels were observed between hDMX or hDM2 peptides and 14‐3‐3 isoforms, indicating different diffusion properties of the fluorophore when bound to the different 14‐3‐3 isoforms. […]
All assays were performed in 384 well plates (each experiment was run in triplicates) and data were collected by Perkin Elmer EnVision […] plate reader with excitation at 480 nm (30 nm bandwidth), polarised dichroic mirror at 505 nm and emission at 535 nm (40 nm bandwidth, S and P polarised). […] A ½ fold dilution series was performed in the titration, with plates read after 30 min, 4 h and 20–24 h. […] Total intensity I and anisotropy r were calculated using Equations 1 and 2 for each well. […]
Figure S4. Fluorescence anisotropy assays for the hDM2 peptides. […]
Figure S5. Fluorescence anisotropy assays for the hDMX144-158pThr151 peptide with all isoforms of 14-3-3. […]

Row | Kd ([1]; FA direct titration, FAM‐Ahx tracer peptide 50 nM, pH 7.4, 1:1 fit, n = 3, read-out: K d, 14‐3‐3η) | koff [2] | kon [2] | ∆G (ITC), 14‐3‐3η ([3]; acetyl labelled peptides) | n (binding stoichiometry, ITC) ([3]; acetyl peptides, 14‐3‐3η) | ‐T∆S (ITC) ([3]; acetyl peptides, 14‐3‐3η) | ∆H (ITC) ([3]; acetyl peptides, 14‐3‐3η) | sedimentation coefficient of 14‐3‐3η with peptide vs protein alone (in words) [4] | fold higher affinity Kd1 of doubly phosphorylated peptide compared to singly phosphorylated peptide ([1]; FA, 14‐3‐3η, compared to hDM2_160‐171 ^pSer166 (hDM2 peptide) or hDMX361‐374 ^pSer367 (hDMX peptide)) | Molecule | FA response / affinity with 14‐3‐3 proteins, all isoforms (in words) [5]
1 | 0.0988 ± 0.0046 µM | 0.121 s⁻¹ | 389000 M⁻¹ s⁻¹ | – | – | – | – | – | – | CC[C@H](C)[C@H](NC(=O)[C@@H](NC(=O)[C@H](CCCNC(=N)N)NC(=O)[C@H](CCCNC(=N)N)NC(=O)[C@H](CS)NC(=O)[C@H](CC(=O)O)NC(C)=O)[C@@H](C)O)C(=O)N[C@@H](COP(=O)(O)O)C(=O)N[C@@H](C)C(=O)N1CCC[C@H]1C(=O)N[C@H](C(=O)N[C@H](C(=O)N[C@@H](CCCNC(=N)N)C(=O)N1CCC[C@H]1C(=O)N[C@@H](CCCCN)C(N)=O)C(C)C)C(C)C [hDMX361‐374 ^pSer367] (Ac-DCRRTI[pS]APVVRPK-NH2) | –
2 | – | 0.0048 s⁻¹ | 1.51e+06 M⁻¹ s⁻¹ | -10.7 kcal/mol | 0.94 | -5.4 kcal/mol | -5.28 ± 0.17 kcal/mol | remained unchanged | 3 fold | CC[C@H](C)[C@H](NC(=O)[C@H](CC(=O)O)NC(=O)[C@H](CO)NC(=O)[C@@H](NC(=O)[C@H](COP(=O)(O)O)NC(=O)[C@H](CC(C)C)NC(=O)[C@H](CO)NC(=O)[C@H](Cc1c[nH]cn1)NC(=O)[C@@H](NC(=O)[C@H](CC(C)C)NC(=O)[C@H](CCCCN)NC(=O)[C@H](CO)NC(C)=O)[C@@H](C)O)[C@@H](C)O)C(=O)N[C@H](C(=O)N[C@@H](C)C(=O)N[C@H](C(=O)N1CCC[C@H]1C(=O)N[C@@H](CCC(=O)O)C(=O)N[C@@H](CCCCN)C(=O)N[C@@H](CCC(=O)O)C(=O)N[C@@H](CC(N)=O)C(=O)N[C@@H](CCC(=O)O)C(=O)NCC(=O)N[C@@H](CC(N)=O)C(=O)N[C@@H](CC(=O)O)C(=O)N[C@H](C(=O)N1CCC[C@H]1C(=O)N[C@@H](CC(=O)O)C(=O)N[C@@H](CS)C(=O)N[C@@H](CCCNC(=N)N)C(=O)N[C@@H](CCCNC(=N)N)C(=O)N[C@H](C(=O)N[C@H](C(=O)N[C@@H](COP(=O)(O)O)C(=O)N[C@@H](C)C(=O)N1CCC[C@H]1C(=O)N[C@H](C(=O)N[C@H](C(=O)N[C@@H](CCCNC(=N)N)C(=O)N1CCC[C@H]1C(N)=O)C(C)C)C(C)C)[C@@H](C)CC)[C@@H](C)O)C(C)C)[C@@H](C)CC)[C@@H](C)O [hDMX335‐373 ^pSer342/pSer367] | –
3 | – | – | – | – | – | – | – | – | – | X‐STSRKRT pT EDDIPTL‐NH2 [hDMX144‐158 ^pThr151, hDMX‐derived phosphopeptide, N‐terminal acetyl (ITC, SPR, crystallography) or FAM‐Ahx (FA tracer), C‐terminal amide] | no response
